# Laboratory results reported in patent US20140377216A1, “ANTICANCER FUSION PROTEIN” (ADAMED SP. Z.O.O., priority 2011, published 2014).
# Assays:
# [1] = system: human colon cancer SW620; experiment: Colon cancer model, Experiment B: SW620 xenograft; type: in vivo, Crl:SHO-PrkdcscidHrhr mice; settings: 30 mg/kg i.v. 6 times every second day, 31 day
# Description: (§1) Tumor size was measured using electronic calliper, tumor volume was calculated using the formula: (a^2×b)/2, where a=shorter diagonal of the tumor (mm) and b=longer diagonal of the tumor (mm). Inhibition of tumor growth was calculated using the formula:
# (§2) TGI[%](Tumor growth inhibition)=(WT/WC)×100−100%
# (§3) wherein WT is the average tumor volume in the treatment group, and WC is the average tumor volume in the control group.
# On day 0 Crl:SHO-Prkdc^scidHr^hr mice were grafted subcutaneously (s.c.) in the right side with 5×10^6 of SW620 cells suspended in 0.1 ml of the mixture HBSS:Matrigel 3:1 using syringe with a needle 0.5×25 mm (Bogmark). On the 17 day of the experiment mice were randomized to obtain the average size of tumors in the group of ˜320 mm^3 and assigned to treatment groups. The treatment groups were administered with the preparation of fusion protein of the invention of Ex. 16^a (20 mg/kg) and rhTRAIL114-281 (30 mg/kg) as a comparison against formulation buffer (19 mM NaH2PO4, 81 mM Na2HPO4, 50 mM NaCl, 5 mM glutathione, 0.1 mM ZnCl2, 10% glycerol, pH 7.4) as a control. The preparations were administered intravenously (i.v) 6 times once daily every second day. On the 31 day of the experiment mice were sacrificed by disruption of the spinal cord.
# [2] = system: human liver cancer HepG2; experiment: Liver cancer model, Experiment A: HepG2 xenograft; type: in vivo, Crl:SHO-PrkdcscidHrhr mice; settings: 50 mg/kg i.v. six times every second day, 42th day
# Description: as §1, §2, §3
# On day 0 Crl:SHO-Prkdc^scidHr^hr mice were grafted subcutaneously (s.c.) in the right flank region with 7×10^6 of HepG2 cells suspended in 0.1 ml of the 3:1 mixture HBSS buffer:Matrigel using syringe with a 0.5×25 mm needle (Bogmark). When tumors reached the size of 64-529 mm^3 (day 25), mice were randomized to obtain the average size of tumors in the group of −230 mm^3 and assigned to treatment groups. The treatment groups were administered with the preparations of fusion protein of the invention of Ex. 16^b (80 mg/kg) and rhTRAIL114-281 (50 mg/kg) as a comparison and reference compound 5-FU (5-Fluorouracil, Sigma-Aldrich) (20 mg/kg). The preparations were administered intravenously (i.v.) six times every second day, 5-FU was applied intraperitoneally (i.p.). The control group received formulation buffer.
# When the therapeutic group reached the average tumor size of ˜1000 mm^3, mice were sacrificed by cervical dislocation.
# [3] = system: pancreatic carcinoma MIA PaCa-2; experiment: Pancreas cancer model, Experiment B: MIA PaCa-2 xenograft; type: in vivo, Crl:SHO-PrkdcscidHrhr mice; settings: rhTRAIL 50 mg/kg i.v. six times every second day, 61th day
# Description: as §1, §2, §3
# On day 0 Crl:SHO-Prkdc^scidHr^hr mice were grafted subcutaneously (s.c.) in the right flank region with 5×10^6 of MIA PaCa-2 cells suspended in 0.1 ml of 3:1 mixture HBSS buffer:Matrigel using syringe with a 0.5×25 mm needle (Bogmark). When tumors reached the size of 60-398 mm^3 (day 20), mice were randomized to obtain the average size of tumors in the group of ˜170 mm^3 and assigned to treatment groups. The treatment groups were administered with the preparations of fusion protein of the invention of Ex. 16^b (50 mg/kg) and rhTRAIL114-281 (50 mg/kg) as a comparison and reference compound gemcytabine (Gemzar, Eli Lilly) (50 mg/kg). The preparations were administered intravenously (i.v.) six times every second day, gemcytabine was applied intraperitoneally (i.p.) in the same schedule. The control group received formulation buffer.
# When a therapeutic group reached the average tumor size of ˜1000 mm^3, mice were sacrificed by the cervical dislocation.
# [4] = system: human liver cancer PLC/PRF/5; experiment: Liver cancer model, Experiment B: PLC/PRF/5 xenograft; type: in vivo, Crl:SHO-PrkdcscidHrhr mice; settings: rhTRAIL 50 mg/kg i.v. six times every second day, 43th day
# Description: as §1, §2, §3
# On day 0 Crl:SHO-Prkdc^scidHr^hr mice were grafted subcutaneously (s.c.) in the right flank region with 7×10^6 of PLC/PRF/5 cells suspended in 0.1 ml of the 3:1 mixture HBSS buffer:Matrigel using syringe with a 0.5×25 mm needle (Bogmark). When tumors reached the size of 72-536 mm^3 (day 29), mice were randomized to obtain the average size of tumors in the group of ˜205 mm^3 and assigned to treatment groups. The treatment groups were administered with the preparations of fusion protein of the invention of Ex. 16^b (50 mg/kg) and rhTRAIL114-281 (50 mg/kg) as a comparison and reference compound 5-FU (5-Fluorouracil, Sigma-Aldrich) (30 mg/kg). The preparations were administered intravenously (i.v.) six times every second day, except 5-FU, which was applied intraperitoneally (i.p.) in the schedule (q1dx5)×2. The control group received formulation buffer.
# When an experimental group reached the average tumor size of ˜1000 mm^3, mice were sacrificed by cervical dislocation.
# [5] = system: human colon cancer HCT116; experiment: Colon cancer model, Experiment A1: HCT116 xenograft; type: in vivo, Crl:SHO-PrkdcscidHrhr mice; settings: 65 mg/kg i.v. six times every second day, 24th day
# Description: as §1, §2, §3
# On day 0 Crl:SHO-Prkdc^scidHr^hr mice were grafted subcutaneously (s.c.) in the right flank region with 5×10^6 of HCT116 cells suspended in 0.1 ml of the 3:1 mixture HBSS buffer:Matrigel using syringe with a 0.5×25 mm needle (Bogmark). When tumors reached the size of 71-432 mm^3 (day 13), mice were randomized to obtain the average size of tumors in the group of ˜180 mm^3 and assigned to treatment groups. The treatment groups were administered with the preparations of fusion protein of the invention of Ex. 16^b (90 mg/kg) and rhTRAIL114-281 (65 mg/kg) as a comparison. The preparations were administered intravenously (i.v.) six times every second day. The control group received formulation buffer.
# When an experimental group reached the average tumor size of −1000 mm^3, mice were sacrificed by cervical dislocation.
# [6] = system: human lung cancer A549; experiment: Lung cancer model, Experiment A: A549 xenograft; type: in vivo; settings: A549, Cby.Cg-foxn1(nu)/J mice; 20 mg/kg i.v. 6 times every second day; 35 day
# Description: as §1, §2, §3
# On day 0 Cby.Cg-foxn1(nu)/J mice were grafted subcutaneously (s.c.) in the right side with 5×10^6 of A549 cells suspended in 0.1 ml of the mixture HBSS:Matrigel 4:1 using syringe with a needle 0.5×25 mm (Bogmark). On the 19 day of the experiment mice were randomized to obtain the average size of tumors in the group of ˜75 mm3 and assigned to treatment groups. The treatment groups were administered with the preparations of fusion protein of the invention of Ex. 11^a (15 mg/kg), and rhTRAIL114-281 (20 mg/kg) as a comparison and water for injections as a control. The preparations were administered intravenously (i.v) 6 times once daily every second day. On the 35 day of the experiment mice were sacrificed by disruption of the spinal cord.
substance,measurement,setting,value
"rhTRAIL114-281: recombinant human soluble TRAIL, amino acids 114-281 of hTRAIL, used as comparative reference",TGI (tumor growth inhibition) relative to the control,[1],−9%
same,TGI (tumor growth inhibition) relative to the control,[2],23.2%
same,TGI (tumor growth inhibition) relative to the control,[3],68%
same,TGI (tumor growth inhibition) relative to the control,[4],25.2%
same,TGI (tumor growth inhibition) relative to the control,[5],37.9%
same,TGI (tumor growth inhibition) relative to the control,[6],0%
